A short description of data set [1]: Blood GOT and GPT as indices of liver function in patients with type 2 diabetes, 12 weeks oral nateglinide. The format is in vivo, human. As to conditions: for GOT, change (0 to 12 weeks) / GPT, change (0 to 12 weeks): decrease, p<0.05. The procedure:
Nateglinide was orally administered to patients with type 2 diabetes three times a day in a dose of usually […] before meals for 12 weeks. Blood GOT and GPT concentrations were determined as indices of the liver function in 0 week and 12th week. In analysis 1, the results obtained by the oral administration of nateglinide to 53 patients with type 2 diabetes each having fatty liver for 12 weeks were analyzed. In analysis 2, the results obtained by the oral administration of nateglinide to 16 cases of type-2 diabetes having liver disorders (GOT, GPT≧51 IU/L) were analyzed.

The test system of data set [2] is rat ACL gene (GenBank ID: J05210). Briefly: Liver ACL expression analyzed with DNA chips, Experiment 2 (GK rats). The format is in vivo. The procedure: In Experiment 1, methylcellulose or 50 mg/kg of nateglinide suspended in methylcellulose was orally administered to normal Wistar rats fasted overnight. One hour after the administration, the liver was taken from each rat and freezed. The total RNA was extracted with RNeasy kit (Qiagen Co. Ltd). Biotinylated cRNA probe was prepared by a standard method and then it was hybridized to rat genome U34 array (Affymetrix Co. Ltd). The amount of cRNA hybridized to rat ACL gene (GenBank ID: J05210) was analyzed with Microarray Suite 5.0 software (Affymetrix Co. Ltd). Also in Experiment 2, 1 g/kg of glucose, 50 mg/kg of nateglinide or both of glucose and nateglinide were orally administered to Wistar rats and GK rats fasted overnight. One hour after the administration, the liver was taken from each rat and the expression of ACL level was analyzed with DNA chips in the same manner as that in Experiment 1.

For data set [3] the following is noted: cited from earlier work.
Data set [4] deals with rat ACL gene (GenBank ID: J05210). Put plainly: Liver ACL expression analyzed with DNA chips, Experiment 1 (normal Wistar rats). The format is in vivo. The procedure:
The effect of nateglinide on the expression of liver ACL was analyzed with DNA chips. In Experiment 1, methylcellulose or 50 mg/kg of nateglinide suspended in methylcellulose was orally administered to normal Wistar rats fasted overnight. One hour after the administration, the liver was taken from each rat and freezed. The total RNA was extracted with RNeasy kit (Qiagen Co. Ltd). Biotinylated cRNA probe was prepared by a standard method and then it was hybridized to rat genome U34 array (Affymetrix Co. Ltd). The amount of cRNA hybridized to rat ACL gene (GenBank ID: J05210) was analyzed with Microarray Suite 5.0 software (Affymetrix Co. Ltd).

For data set [5] the following is noted: after 30 days' administration; patients without liver diseases (Drugs R&D 2(2):123 (1999)); cited from earlier work.
Data set [6] can be described thus: Insulin level in GK rat portal vein after nateglinide. The format is in vivo. As to conditions: after administration.
The mark [7] stands for this setting: analysis 1: 53 type 2 diabetes patients with fatty liver.
[8] abbreviates: analysis 1: type 2 diabetes patients with fatty liver, 12 weeks.
Setting [9] is: analysis 2: 16 cases of type-2 diabetes with liver disorders.
Where [10] appears, read: analysis 2: type-2 diabetes with liver disorders, 12 weeks.

Turning to `CC(C)[C@H]1CC[C@H](C(=O)N[C@H](Cc2ccccc2)C(=O)O)CC1` [nateglinide, (−)-N-(trans-4-isopropylcyclohexanecarbonyl)-D-phenylalanine], the “GOT value after administration” value in data set [1] (5 cases with fatty liver and NASH-like liver troubles (GOT, GPT≧51 IU/L, GPT>GOT), reduced from 138.6±56.0) worked out at 83.6±41.5 IU/L. For the same compound, the “GPT value after administration” value in data set [1] (5 cases with fatty liver and NASH-like liver troubles (GOT, GPT≧51 IU/L, GPT>GOT), reduced from 242.6±112.8) amounted to 57.8±59.2 IU/L. Further, the “GOT, 12th week” value in data set [1] (analysis 1: 53 type 2 diabetes patients with fatty liver, 12 weeks oral, 0 week 58.4 ± 34.4) was 33.8 ± 22.9 IU/L; in data set [1] (analysis 2: 16 cases of type-2 diabetes with liver disorders (GOT, GPT≧51 IU/L), 0 week 133.3 ± 51.3), 85.4 ± 40.9 IU/L. In addition, the “GPT, 12th week” value in data set [1] (analysis 1: 53 type 2 diabetes patients with fatty liver, 12 weeks oral, 0 week 77.2 ± 55.9) is given as 44.0 ± 29.7 IU/L; in data set [1] (analysis 2: 16 cases of type-2 diabetes with liver disorders (GOT, GPT≧51 IU/L), 0 week 217.3 ± 94.1), 80.2 ± 53.4 IU/L. For the same compound, the “GOT, change (0 to 12 weeks)” value in data set [1] (setting [7]) came to 24.7 ± 12.4 IU/L; in data set [1] (setting [9]), 47.8 ± 37.9 IU/L. The “GPT, change (0 to 12 weeks)” value in data set [1] (setting [7]) is reported as 33.2 ± 31.0 IU/L; in data set [1] (setting [9]), 137.0 ± 43.4 IU/L. The “Level of GOT after administration compared with before” value in data set [1] (setting [8]) was “statistically significant lowered”. Further, in data set [1] (setting [8]), the “Level of GPT after administration compared with before” value was “statistically significant lowered”. Further, in data set [1] (setting [10]), the “GOT before vs after administration” value was “statistically significant lowering”. In data set [1] (setting [10]), the “GPT before vs after administration” value is reported as “statistically significant lowering”. Besides, the “Expression level of liver ACL (cRNA hybridized to rat ACL gene), Analysis 1” value in data set [2] (Experiment 2 group 5, GK rats fasted overnight, 50 mg/kg oral with 1 g/kg glucose, liver 1 h after, GK controls 139.6) amounted to 66.4; in data set [4] (Wistar rats fasted overnight, 50 mg/kg oral, no glucose, liver 1 h after, methylcellulose control 96.2), 144.4. Moreover, the “Expression level of liver ACL (cRNA hybridized to rat ACL gene), Analysis 2” value in data set [2] (Experiment 2 group 5, GK rats fasted overnight, 50 mg/kg oral with 1 g/kg glucose, liver 1 h after, GK controls 452.5 / 416.7) is recorded as 189.9; in data set [4] (Wistar rats fasted overnight, 50 mg/kg oral, no glucose, liver 1 h after, methylcellulose control 459.3) it was 543.6. Also, in data set [2] (GK rats, Experiment 2, groups 3, 4 vs 5), the “Elevated liver ACL expression level” value is “significantly suppressed and returned to the normal level”. The “Effect of hepatic cirrhosis on pharmacokinetics” value in data set [3] (J. Clin. Pharmacol. 40:634 (2000), Drugs 60(3):607 (2000)) was “no significant effect”. In addition, in data set [3] (subjects with mild hepatic impairment (Am J Health-Syst Pharm 58, 285 (2001))), the “Increase of total exposure” value was 30%. Besides, the “Suppression of liver ACL mRNA level” value in data set [4] (normal Wistar rats) is recorded as “no significant suppression”. Moreover, in data set [5], the “Alterations in liver function” value was “no significant alterations”. The “Insulin level in portal vein” value in data set [6] is “transient increase”.

Source of the values: patent US20090176835A1, “PHARMACEUTICAL COMPOSITION FOR SUPPRESSION OF THE EXPRESSION OF ATP CITRATE LYASE AND USE THEREOF” (Ajinomoto Co., Inc., priority 2002, published 2009).
